Assay results reported in PubChem BioAssay AID2060509 (Molecular Pharmacology Branch, DTP, NCI, 2025).

Tested on: 485176-168-R4-J1-PDC spheroids with HUVEC/MSC, viability
Test: Anticancer human tumor 485176-168-R4-J1-PDC patient-derived pancreatic adenocarcinoma cell line growth inhibition [GQUAD]
Conditions: for IC50: curve of first compound; for viability, T/C: stronger effect = lower value
Excerpt: DNA G-quadruplex Stabilizer Agents in Combinations in Complex Spheroids
A high-throughput screen of multi-cell type tumor spheroids was designed to identify active combinations of DNA G-quadruplex stabilizer agents and targeted small molecules. Complex spheroids include a stromal component modeled by human endothelial cells (HUVEC) and fibroblasts modeled by human mesenchymal stem cells (MSCs). The concentration ranges selected for each drug and investigational agent were based upon clinically achievable concentrations if the clinical Cmax of the agent was known.
Compounds. The drugs and investigational agents: pidnarulex (CX-5461; NSC782164), APTO-253 (NSC789042), BRACO-19 (NSC847499), peposertib (NSC802822), ceralasertib (NSC780249), elimusertib (NSC800525), camonsertib (NSC841442), AZD-1390 (NSC803789), olaparib (NSC753686), talazoparib (NSC767125), ART-558 (NSC835418), sotorasib (NSC818433), MRTX-1133 (NSC836407), SN-38 (NSC673596), topotecan (NSC609699), etoposide (NSC141540), doxorubicin (NSC123127), gemcitabine (NSC613327), 5-fluorouracil (NSC19893), paclitaxel (NSC125973), vemurafenib (NSC761431), panobinostat (NSC761190), R-306465 (JNJ-16241199; NSC773264), adavosertib (NSC754352), TP-3654 (NSC805149), carboplatin (NSC241240), KSQ-4279 (NSC840948), and staurosporine (NSC755774) were obtained from the National Cancer Institute (NCI) Developmental Therapeutics Program Chemical Repository (34). The FDA-approved anticancer drug set is available from the NCI Developmental Therapeutics Program. […] The stock solutions were prepared in dimethyl sulfoxide (DMSO, Sigma-Aldrich, St. Louis, MO, cat. D2650) at 800-fold the tested concentration and stored at -70 degrees C prior to their use. All drugs and investigational agents were tested over a range starting from a high concentration at or near the clinical Cmax and decreasing in half-log increments. If the clinical Cmax for an agent had not been determined, the highest concentration tested was 10 microM.
2.3 Cell Culture. All cells were maintained in an incubator at 37 degrees C and 5% CO2 with 95% humidity. The PDC lines were cultured according to standard operating procedures established by the NCI PDMR. All PDCs were thawed and cultured in Matrigel-coated flasks prepared with a working solution of 1X Ham's F-12 nutrient mix, without supplementation (Invitrogen, cat. 11765054), 100 U/mL penicillin-streptomycin (Invitrogen, cat. 15140122), and 2.5% Matrigel (Corning Inc., cat. 354248) for the first three passages. The 857933-349-R-J2-PDC line was cultured in 6C/Colon 1B media, which includes advanced DMEM/F-12 (Thermo Fisher Scientific, cat. 12634028), 10 mM HEPES (Thermo Fisher Scientific, cat. 15630080), 1X GlutaMAX supplement (Thermo Fisher Scientific, cat. 35050061), 0.1 mg/mL primocin (InvivoGen, cat. ant-pm-2), 10% defined fetal bovine serum, heat inactivated (HyClone Laboratories Inc., cat. SH30070.03HI), 50% L-WRN conditioned media (ATCC, cat. CRL-3276), 1.25 mM N-Acetyl-L-cysteine (Sigma-Aldrich, cat. A9165), 10 mM nicotinamide (Sigma-Aldrich, cat. N0636), 1X B-27 supplement (Thermo Fisher Scientific, cat. 17504044), 1X N-2 supplement (Thermo Fisher Scientific, cat. 17502048), 10 microM Y-27632 dihydrochloride (Tocris Bioscience, cat. 1254), and 50 ng/mL human EGF recombinant protein (Thermo Fisher Scientific, cat. PHG0311). The 485176-168-R4-J1-PDC line was cultured in Panc media, which includes all 6C/Colon 1B media components plus 100 ng/mL human FGF-10 (Thermo Fisher Scientific, cat. 100-26), 500 nM SB-431542 (Selleckchem, cat. S1067), and gastrin (Tocris, cat. 3006).
[…]
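Also: spheroids exposed to compounds for seven days before readout.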
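For viability, T/C in this document: percent viability relative to DMSO vehicle control wells as 100%.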

Compound: CC(C)(O)C1CCC(Nc2ccc3ncc(-c4cccc(C(F)(F)F)c4)n3n2)CC1 (configuration not stated) + CN(C)c1ccc(Nc2c3ccc(NC(=O)CCN4CCCC4)cc3nc3cc(NC(=O)CCN4CCCC4)ccc23)cc1
- IC50 (second compound 0.0316 µM): > 10 µM
- IC50 (second compound 0.1 µM): > 10 µM
- IC50 (second compound 0.316 µM): > 10 µM
- IC50 (second compound 1 µM): 6.25 µM
- IC50 (second compound 3.16 µM): 2.74 µM
- IC50 (second compound 10 µM): 1.5 µM
- viability, T/C (second compound 0.0316 µM, first compound 0.0316 µM): 101%
- viability, T/C (second compound 0.0316 µM, first compound 0.1 µM): 104%
- viability, T/C (second compound 0.0316 µM, first compound 0.316 µM): 86.1%
- viability, T/C (second compound 0.0316 µM, first compound 1 µM): 78.8%
- viability, T/C (second compound 0.0316 µM, first compound 3.16 µM): 56.7%
- viability, T/C (second compound 0.0316 µM, first compound 10 µM): 51.1%
- viability, T/C (second compound 0.1 µM, first compound 0.0316 µM): 83.8%
- viability, T/C (second compound 0.1 µM, first compound 0.1 µM): 89.5%
- viability, T/C (second compound 0.1 µM, first compound 0.316 µM): 88.7%
- viability, T/C (second compound 0.1 µM, first compound 1 µM): 77.7%
- viability, T/C (second compound 0.1 µM, first compound 3.16 µM): 64.5%
- viability, T/C (second compound 0.1 µM, first compound 10 µM): 51%
- viability, T/C (second compound 0.316 µM, first compound 0.0316 µM): 104%
- viability, T/C (second compound 0.316 µM, first compound 0.1 µM): 84.6%
- viability, T/C (second compound 0.316 µM, first compound 0.316 µM): 100%
- viability, T/C (second compound 0.316 µM, first compound 1 µM): 97.9%
- viability, T/C (second compound 0.316 µM, first compound 3.16 µM): 56.2%
- viability, T/C (second compound 0.316 µM, first compound 10 µM): 59.1%
- viability, T/C (second compound 1 µM, first compound 0.0316 µM): 111%
- viability, T/C (second compound 1 µM, first compound 0.1 µM): 104%
- viability, T/C (second compound 1 µM, first compound 0.316 µM): 82.2%
- viability, T/C (second compound 1 µM, first compound 1 µM): 91.4%
- viability, T/C (second compound 1 µM, first compound 3.16 µM): 56.6%
- viability, T/C (second compound 1 µM, first compound 10 µM): 42.1%
- viability, T/C (second compound 3.16 µM, first compound 0.0316 µM): 88.1%
- viability, T/C (second compound 3.16 µM, first compound 0.1 µM): 81.1%
- viability, T/C (second compound 3.16 µM, first compound 0.316 µM): 92.1%
- viability, T/C (second compound 3.16 µM, first compound 1 µM): 97.7%
- viability, T/C (second compound 3.16 µM, first compound 3.16 µM): 44.4%
- viability, T/C (second compound 3.16 µM, first compound 10 µM): 37.3%
- viability, T/C (second compound 10 µM, first compound 0.0316 µM): 89%
- viability, T/C (second compound 10 µM, first compound 0.1 µM): 85.7%
- viability, T/C (second compound 10 µM, first compound 0.316 µM): 72.6%
- viability, T/C (second compound 10 µM, first compound 1 µM): 65.9%
- viability, T/C (second compound 10 µM, first compound 3.16 µM): 25.4%
- viability, T/C (second compound 10 µM, first compound 10 µM): 16.4%
